Results published in PubChem BioAssay AID330 (DTP/NCI, 2004).
Values joined by “and” are separate entries in the source; they are usually repeats but may differ in a detail not shown here. Equal entries are not always repeated. Toxic doses and inconclusive results are not listed. How the source made its calls: active means survival T/C of 150% or more; inactive means T/C below 125% in these data.

Tested on: P388 leukemia ip, CD2F1 mice, survival T/C
Assay: NCI In Vivo Anticancer Drug Screen. Data for tumor model P388 Leukemia (intraperitoneal) in CD2F1 (CDF1) mice
Conditions: endpoint: median survival time, higher = longer survival
Procedure, shortened: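 Mice carrying the transplanted tumor received test compound or vehicle. Survival was recorded in each group, and the value is the treated-group measurement divided by that of the vehicle-treated control group.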

[1] = dose: 50.0 mg/kg/injection, schedule: Q01DX009 (ip), vehicle: Klucel (hydroxypropylcellulose) (HPC)
[2] = dose: 100.0 mg/kg/injection, schedule: Q01DX009 (ip), vehicle: Klucel (hydroxypropylcellulose) (HPC)
[3] = dose: 200.0 mg/kg/injection, schedule: Q01DX009 (ip), vehicle: Klucel (hydroxypropylcellulose) (HPC)
[4] = dose: 100.0 mg/kg/injection, schedule: Q04DX003 (ip), vehicle: saline
[5] = dose: 200.0 mg/kg/injection, schedule: Q04DX003 (ip), vehicle: saline
[6] = dose: 50.0 mg/kg/injection, schedule: Q01DX005 (ip), vehicle: Klucel (hydroxypropylcellulose) (HPC)
[7] = dose: 100.0 mg/kg/injection, schedule: Q01DX005 (ip), vehicle: Klucel (hydroxypropylcellulose) (HPC)
[8] = dose: 50.0 mg/kg/injection, schedule: Q01DX009 (ip), vehicle: saline
[9] = dose: 200.0 mg/kg/injection, schedule: Q01DX009 (ip), vehicle: saline
[10] = dose: 200.0 mg/kg/injection, schedule: Q01DX005 (ip), vehicle: Klucel (hydroxypropylcellulose) (HPC)
[11] = dose: 60.0 mg/kg/injection, schedule: Q01DX005 (ip), vehicle: saline with Tween-80
[12] = dose: 120.0 mg/kg/injection, schedule: Q01DX005 (ip), vehicle: saline with Tween-80
[13] = dose: 240.0 mg/kg/injection, schedule: Q01DX005 (ip), vehicle: saline with Tween-80

Measured: T/C

N#CCC[P+](CCC#N)(CCC#N)CCN1C(=O)c2ccccc2C1=O
inactive: dose: 0.78 mg/kg/injection, schedule: Q01DX009 (ip), vehicle: water 96 % of control | dose: 1.56 mg/kg/injection, schedule: Q01DX009 (ip), vehicle: water 89 % of control | dose: 3.13 mg/kg/injection, schedule: Q01DX009 (ip), vehicle: water 100 % of control | dose: 6.25 mg/kg/injection, schedule: Q01DX009 (ip), vehicle: water 115 % of control | dose: 12.5 mg/kg/injection, schedule: Q01DX009 (ip), vehicle: water 108 % of control | dose: 25.0 mg/kg/injection, schedule: Q01DX009 (ip), vehicle: water 102 % of control and 117 % of control | dose: 50.0 mg/kg/injection, schedule: Q01DX009 (ip), vehicle: water 100 % of control | dose: 100.0 mg/kg/injection, schedule: Q01DX009 (ip), vehicle: water 100 % of control | dose: 200.0 mg/kg/injection, schedule: Q01DX009 (ip), vehicle: water 101 % of control

CN(C)C1=C(N(C)C)C1N(C)C
inactive: dose: 10.0 mg/kg/injection, schedule: Q04DX003 (ip), vehicle: saline 100 % of control | dose: 20.0 mg/kg/injection, schedule: Q04DX003 (ip), vehicle: saline 97 % of control | dose: 40.0 mg/kg/injection, schedule: Q04DX003 (ip), vehicle: saline 101 % of control

Cc1cc(C)c2c(c1)/C(=C/C(=O)c1ccccc1)C(=O)N2
inactive: [1] 100 % of control | [2] 95 % of control | [3] 100 % of control

C(=N\Nc1nnc2c(n1)[nH]c1ccccc12)/c1cccnc1
inactive: dose: 12.5 mg/kg/injection, schedule: Q01DX005 (ip), vehicle: Klucel + Tween-80 106 % of control | dose: 25.0 mg/kg/injection, schedule: Q01DX005 (ip), vehicle: Klucel + Tween-80 91 % of control | dose: 50.0 mg/kg/injection, schedule: Q01DX005 (ip), vehicle: Klucel + Tween-80 87 % of control

C/C(CC1C(CCO)C1(C)C)=N\NC(N)=O (stereo unspecified)
inactive: dose: 60.0 mg/kg/injection, schedule: Q01DX005 (ip), vehicle: Klucel (hydroxypropylcellulose) (HPC) 98 % of control | dose: 120.0 mg/kg/injection, schedule: Q01DX005 (ip), vehicle: Klucel (hydroxypropylcellulose) (HPC) 100 % of control | dose: 240.0 mg/kg/injection, schedule: Q01DX005 (ip), vehicle: Klucel (hydroxypropylcellulose) (HPC) 106 % of control

S=C(NNc1nnc(-c2ccccc2)c(-c2ccccc2)n1)NC1CCCCC1
inactive: dose: 50.0 mg/kg/injection, schedule: Q01DX005 (ip), vehicle: saline with Tween-80 93 % of control | dose: 100.0 mg/kg/injection, schedule: Q01DX005 (ip), vehicle: saline with Tween-80 88 % of control

CN(N=O)C(=O)NCC1OC(n2cnc3c(=O)[nH]cnc32)C(O)C1O (stereo unspecified)
inactive: dose: 50.0 mg/kg/injection, schedule: Q01DX005 (ip), vehicle: saline 100 % of control | dose: 100.0 mg/kg/injection, schedule: Q01DX005 (ip), vehicle: saline 105 % of control | dose: 200.0 mg/kg/injection, schedule: Q01DX005 (ip), vehicle: saline 121 % of control

CC(N)(CO)C(=O)O (stereo unspecified)
inactive: [4] 104 % of control | [5] 90 % of control | dose: 400.0 mg/kg/injection, schedule: Q04DX003 (ip), vehicle: saline 100 % of control

O=C1c2ccccc2C(=O)N1OCc1ccc(-c2ccccc2)cc1
inactive: [6] 96 % of control | [7] 93 % of control

COC1=CC(=Nc2ccc(N(C)C)cc2)C=CC1=O
inactive: dose: 3.12 mg/kg/injection, schedule: Q01DX005 (ip), vehicle: saline 106 % of control | dose: 6.25 mg/kg/injection, schedule: Q01DX005 (ip), vehicle: saline 109 % of control | dose: 12.5 mg/kg/injection, schedule: Q01DX005 (ip), vehicle: saline 106 % of control

Cc1cc2c(cc1S(=O)(=O)O)C1C(C3C2C2(Cl)C(Cl)=C(Cl)C3(Cl)C2(Cl)Cl)C2(Cl)C(Cl)=C(Cl)C1(Cl)C2(Cl)Cl (stereo unspecified)
inactive: [8] 101 % of control | dose: 100.0 mg/kg/injection, schedule: Q01DX009 (ip), vehicle: saline 92 % of control | [9] 92 % of control

N=C(N)S(=O)(=O)c1ccccc1
inactive: dose: 12.5 mg/kg/injection, schedule: Q04DX003 (ip), vehicle: Klucel (hydroxypropylcellulose) (HPC) 102 % of control and 106 % of control | dose: 25.0 mg/kg/injection, schedule: Q04DX003 (ip), vehicle: Klucel (hydroxypropylcellulose) (HPC) 106 % of control and 108 % of control (2×) | dose: 50.0 mg/kg/injection, schedule: Q04DX003 (ip), vehicle: Klucel (hydroxypropylcellulose) (HPC) 102 % of control and 107 % of control and 121 % of control | dose: 100.0 mg/kg/injection, schedule: Q04DX003 (ip), vehicle: Klucel (hydroxypropylcellulose) (HPC) 112 % of control | dose: 200.0 mg/kg/injection, schedule: Q04DX003 (ip), vehicle: Klucel (hydroxypropylcellulose) (HPC) 118 % of control

O=C(O)CCSCCCCCCCCCCCCSCCC(=O)O
inactive: [6] 95 % of control | [7] 89 % of control | [10] 87 % of control

O=S1(=O)C2C=CCCC1C=C2 (stereo unspecified)
inactive: dose: 12.5 mg/kg/injection, schedule: Q01DX009 (ip), vehicle: saline 92 % of control | dose: 25.0 mg/kg/injection, schedule: Q01DX009 (ip), vehicle: saline 96 % of control | [8] 100 % of control | [9] 100 % of control

CCOC(=O)c1c(C)n(C)c2c1nnc1ccccc12
inactive: [11] 98 % of control | [12] 90 % of control | [13] 86 % of control

N#Cc1ccccc1N=NNc1ccc(-c2nc(N)nc(N)n2)cc1
inactive: dose: 50.0 mg/kg/injection, schedule: Q04DX003 (ip), vehicle: saline 100 % of control | [4] 95 % of control | [5] 100 % of control

O=c1cc(CO)[nH]cc1O
inactive: [1] 99 % of control | [2] 123 % of control | dose: 120.0 mg/kg/injection, schedule: Q01DX009 (ip), vehicle: saline with Tween-80 87 % of control | [3] 122 % of control | dose: 400.0 mg/kg/injection, schedule: Q01DX009 (ip), vehicle: saline with Tween-80 112 % of control

COc1nc2n[nH]nc2c(=O)n1C
inactive: [11] 104 % of control | [12] 102 % of control | [13] 101 % of control

COc1cc(C2C(C#N)=C(C)Nc3nc(N)nc(N)c32)cc(OC)c1OC (stereo unspecified)
inactive: [11] 94 % of control | [12] 106 % of control | [13] 104 % of control

CN1C(=O)C2C(C1=O)[C@H]1c3ccccc3C=CN1[C@@H]2C(=O)c1ccccc1 (stereo partly specified)
inactive: [11] 93 % of control | [12] 90 % of control | [13] 90 % of control

O=C(/C=C/c1cccc([N+](=O)[O-])c1)Nc1cccc(S(=O)(=O)F)c1
inactive: [11] 102 % of control | [12] 93 % of control | [13] 91 % of control

Cc1ccc(NS(=O)(=O)c2ccc3ccccc3c2)c(C)c1
inactive: dose: 100.0 mg/kg/injection, schedule: Q04DX003 (ip), vehicle: saline with Tween-80 100 % of control | dose: 200.0 mg/kg/injection, schedule: Q04DX003 (ip), vehicle: saline with Tween-80 100 % of control | dose: 400.0 mg/kg/injection, schedule: Q04DX003 (ip), vehicle: saline with Tween-80 104 % of control

Oc1c(Br)cc(Br)cc1Oc1c(O)c(Br)c(Br)c(Br)c1Br
inactive: dose: 6.25 mg/kg/injection, schedule: Q01DX005 (ip), vehicle: Klucel (hydroxypropylcellulose) (HPC) 104 % of control | dose: 12.5 mg/kg/injection, schedule: Q01DX005 (ip), vehicle: Klucel (hydroxypropylcellulose) (HPC) 102 % of control | dose: 25.0 mg/kg/injection, schedule: Q01DX005 (ip), vehicle: Klucel (hydroxypropylcellulose) (HPC) 104 % of control | [6] 100 % of control and 101 % of control | [7] 100 % of control | [10] 99 % of control
